{"source": "patent US20080299563A1", "about": "“HUMAN MAP2 GENE PROMOTER” (priority 2007, published 2008)", "key": {"MAP2 promoter [1]": {"system": "MAP2 promoter", "assay": "Notch1 inhibition / HES1 knockdown, phMAP2-2 luciferase assay in 451Lu metastatic melanoma cells", "type": "cell-based, human", "conditions": "DAPT 1 or 2 μM, 0.6 μg HES1shRNA", "description": "(§1) Transient transfection and luciferase assays: Transient transfections with various promoter constructs were performed using Lipofectamine (Invitrogen, Carlsbad, Calif.) according to the manufacturer's instructions. Cells in 24- or 6-well tissue culture dishes, in triplicates, were transfected with 0.6 or 3 μg, respectively, of empty vector pGL3 or promoter-reporter constructs (phMAP2-1, phMAP2-2, phMAP2-3 and phMAP2-4) and 0.07 or 0.5 μg Renilla luciferase plasmid pRL. In co-transfection experiments, different amounts of NeuroD and Hes1 expression plasmids were added. For Notch1 inhibition and HES1 knockdown experiments, cells were either pre-treated with indicated amount of γ-secretase inhibitor-DAPT (Calbiochem, La Jolla, Calif.) and/or transfected with indicated amount of lentiviral HES1shRNA plasmid (The RNAi Consortium collection, a library of short hairpin DNAs cloned in pLKO.1 lentiviral vector; Open biosystem, Huntsville, Ala.) 1 day before transfection with MAP2 promoter constructs. After 48 h of transfection, cells were washed with pre-chilled PBS and lysed in passive lysis buffer (Dual Luciferase kit, Promega). Firefly luciferase and Renilla luciferase activities in the cell lysates were measured according to the manufacturer's instructions using TD 20/20-luminometer (Turner Biosystems, Sunnyvale, Calif.). […]"}, "MAP2 promoter [2]": {"system": "MAP2 promoter", "assay": "Notch1 inhibition / HES1 knockdown, phMAP2-2 luciferase assay in WM35 primary melanoma cells", "type": "cell-based, human", "conditions": "DAPT 1 or 2 μM, 0.6 μg HES1shRNA", "description": "as §1"}}, "data": [{"compound": "C[C@H](NC(=O)Cc1cc(F)cc(F)c1)C(=O)N[C@H](C(=O)OC(C)(C)C)c1ccccc1", "note": "[DAPT]", "values": [{"measurement": "MAP2 promoter activity (phMAP2-2 luciferase)", "setting": "MAP2 promoter [1]", "value": "not sufficient to activate MAP2 promoter"}, {"measurement": "MAP2 promoter activity (phMAP2-2 luciferase)", "setting": "MAP2 promoter [2]", "value": "dose-dependent increase"}]}]}
